This is an account of results in patent US12624173B2, “Biodegradable polymeric compositions, methods of preparation and uses thereof” (B.G. NEGEV TECHNOLOGIES AND APPLICATIONS LTD., AT …, priority 2019, dated 2026).

Where two headings read alike, the source gives them in different places.

The nature of data set [1]: Cannabidiol distribution in brain and plasma 1 h after IN and IV administration. The following applies: rat. Type of data set: in vivo. On the procedure:
The administered intranasal dose used in each animal was 220 μg CBD/kg body weight. The applied volume was approximately 15 μL/nostril. For the intravenous dose, a solution of CBD for injection was prepared by dissolving CBD in a small portion of ethanol, then mixed with a sterile saline solution (pH7.4) containing 1.5% Tween 80 and 0.1% ascorbic acid. The final concentration of ethanol was 5%. […] After 60 minutes from administration, the animals were euthanized by CO2 aspiration. […] The brain was then carefully excised, washed with saline, frozen at −80° C. and lyophilized.
The quantification of CBD was carried out at 220 nm.

For data set [2] the following is noted: CBD in oil, humans; cited from earlier work.
For data set [3] the following is noted: rat, in vivo, iv.
Procedure: (§1) For intravenous administration, aqueous solution of GR hydrochloride was prepared by dissolving the drug in a sterile saline solution. Approximately 0.3 ml of the solution were injected into the tail vein of a sedated animal (GR HCl dose=36 μg/kg body weight). The animals were sedated with isoflurane vapor just before administration. Sixty minutes after the administration, the animals were euthanized by CO2 aspiration. Then, blood sample was taken by cardiopuncture into heparinized tubes. Blood in heparinized tubes was centrifuged at 10,000-g for 10 min and the separated plasma was transferred into vials and kept at −20° C. until analyzed by HPLC. The brain was then carefully excised, washed with saline and frozen at −80° C.
(§2) Quantification of GR in plasma was performed by mixing 1 ml of plasma sample with 2 ml of methanol, followed by vortex stirring and centrifugation at 10,000-g for 10 min. The brain was homogenized with 2 ml of methanol/0.5 N HCl solution (1:1) followed by centrifugation at 10,000-g for 10 min. The supernatant solutions of both plasma and brain extracts were analyzed immediately by HPLC. Aliquots of 20 μl from each sample were injected into a HPLC system, equipped with a prepacked CN column. The quantification of GR was carried out at 301 nm. The samples were chromatographed using an isocratic mobile phase consisting of acetonitrile-acetate buffer solution pH5 (45:55) at a flow rate of 1 ml/min.
The conditions of data set [4]: after IV curcumin in rats; cited from earlier work.
The conditions of data set [5]: cited from earlier work.
Data set [6] in a line: Granisetron distribution in brain and plasma 1 h after IN and IV administration. The following applies: rat.
Procedure: as §1, §2

With `C=C(C)[C@@H]1CCC(C)=C[C@H]1c1c(O)cc(CCCCC)cc1O` [CBD, Cannabidiol], the concentration at 1 h in data set [1] (plasma, IV injection of CBD solution, dose 220 μg/Kg, 1 hour after administration, read-out: Plasma level (cannabidiol)) came out at 71.2 ng/mL. Besides, in data set [1] (1 h after iv administration of the same dose (220 μg/Kg)), the CBD brain concentration entry is on record as “no detectable concentration”. The “Brain Level (cannabidiol)” value in data set [1] (IV injection of CBD solution, dose 220 μg/Kg, 1 hour after administration) was “Undetectable”. Besides, the oral bioavailability entry in data set [2] is listed as “about 6%”.

`CN1C2CCCC1CC(NC(=O)c1nn(C)c3ccccc13)C2.Cl` (stereo not shown) [GR-HCl]: in data set [3], the “portion of the dose that reached the brain” value is on record as “ca. 0.64%”.

In the case of `COc1cc(/C=C/C(=O)CC(=O)/C=C/c2ccc(O)c(OC)c2)ccc1O` [curcumin, diferuloyl methane], the t1/2 in data set [4] is 0.47 h.

As for `CN1C2CCCC1CC(NC(=O)c1nn(C)c3ccccc13)C2` (stereo not shown) [granisetron, Granisetron], the “average Cmax” value in data set [5] (1 mg oral dose) is 3.63 ng/mL. In addition, in data set [5] (in vivo), the “Vd (volume of distribution)” value is 3.94 L/kg, the “clearance (CL)” value was 6.83 mL/min/kg, the protein binding is reported as 65% and the t1/2 is reported as 6.23 h. Also, the “Plasma level (granisetron)” value in data set [6] (IV injection of GR hydrochloride in saline (GR HCl 36 μg/kg), 1 hour after administration) is listed as “Undetectable”. In data set [6] (brain, iv, 36 μg/kg), this compound had a concentration at 1 h of 59.7 ng/g.
